Our source for the EC50 values is BindingDB's records for doi:10.7270/Q2PN942B (Vanderbilt Screening Center for GPCRs, Ion Channels and …, 2009).

pEC50: −log10 of the molar value.

The first assay has as its target T1, Solute carrier family 12 member 5 (Homo sapiens, UniProt Q9H2X9).
T1 sequence (Q9H2X9 whole entry): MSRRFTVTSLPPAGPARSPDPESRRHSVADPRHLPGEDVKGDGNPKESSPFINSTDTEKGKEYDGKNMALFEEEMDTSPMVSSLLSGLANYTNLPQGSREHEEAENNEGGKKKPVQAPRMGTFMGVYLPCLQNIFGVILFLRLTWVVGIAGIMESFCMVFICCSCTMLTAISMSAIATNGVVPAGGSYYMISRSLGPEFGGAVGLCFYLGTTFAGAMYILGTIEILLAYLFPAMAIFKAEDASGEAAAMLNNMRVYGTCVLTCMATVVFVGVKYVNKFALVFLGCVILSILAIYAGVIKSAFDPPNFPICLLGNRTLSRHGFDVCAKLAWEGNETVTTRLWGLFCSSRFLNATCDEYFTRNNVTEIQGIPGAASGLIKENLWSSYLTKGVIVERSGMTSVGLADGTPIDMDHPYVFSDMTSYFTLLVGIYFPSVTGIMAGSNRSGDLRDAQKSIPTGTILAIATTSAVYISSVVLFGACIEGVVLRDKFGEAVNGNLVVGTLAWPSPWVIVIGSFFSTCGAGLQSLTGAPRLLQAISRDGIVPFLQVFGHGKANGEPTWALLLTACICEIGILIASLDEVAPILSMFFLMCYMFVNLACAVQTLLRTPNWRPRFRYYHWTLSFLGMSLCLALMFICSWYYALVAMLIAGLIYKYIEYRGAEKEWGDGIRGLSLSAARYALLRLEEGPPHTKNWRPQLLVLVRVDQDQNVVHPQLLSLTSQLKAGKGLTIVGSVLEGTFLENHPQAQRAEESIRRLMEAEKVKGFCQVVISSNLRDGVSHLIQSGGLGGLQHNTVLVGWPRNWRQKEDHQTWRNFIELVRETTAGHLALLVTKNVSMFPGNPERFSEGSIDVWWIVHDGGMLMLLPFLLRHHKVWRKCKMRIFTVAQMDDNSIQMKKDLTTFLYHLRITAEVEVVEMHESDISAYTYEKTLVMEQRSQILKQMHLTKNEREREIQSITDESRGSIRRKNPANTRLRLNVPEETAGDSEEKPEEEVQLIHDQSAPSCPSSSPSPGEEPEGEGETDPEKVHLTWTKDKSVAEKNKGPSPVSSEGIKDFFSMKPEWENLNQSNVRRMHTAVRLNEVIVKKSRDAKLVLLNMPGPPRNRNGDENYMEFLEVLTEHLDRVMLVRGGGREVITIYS
The assay is described as follows: modulation of KCC2 K-Cl transport – cell-based, assay 2, dose response (AID 1723).
Conditions: not given
In general, pEC50 refers to the negative decadic logarithm of the EC50, by convention in mol/L. A high value points to a low EC50. In turn, `NC(=S)NN=C1C(=O)N(Cc2ccc(F)cc2)c2ccccc21` [1-[(Z)-[1-[(4-fluorophenyl)methyl]-2-oxidanylidene-indol-3-ylidene]amino]thiourea] had a pEC50 of 5.64. `COc1cc(NC(=S)NC(=O)c2ccco2)ccc1NC(=O)C(C)C` [MLS000672338] had a pEC50 of 4.85. This pEC50 is 0.79 log units lower than that of the compound before. The same measure, in the same setting: next, `COC(=O)[C@@H](NC(=O)O[C@@H]1C(=O)c2ccc(OC)cc2O[C@H]1c1cccc(C(F)(F)F)c1)C(C)C` [(2S)-2-[[(2S,3S)-4-keto-7-methoxy-2-[3-(trifluoromethyl)phenyl]chroman-3-yl]oxycarbonylamino]-3-methyl-butyric acid methyl ester]: 6.00; `CNc1ccc2oc(C[C@H]3O[C@@]4(CC[C@H]3C)O[C@H]([C@H](C)C(=O)c3ccc[nH]3)[C@H](C)C[C@H]4C)nc2c1C(=O)O` [MLS001056783]: 4.81. On the same count and under the same terms, the result for `S=C(NCCc1ccccc1)NN=Cc1cccc(Cl)c1Cl` [1-[(2,3-dichlorobenzylidene)amino]-3-phenethyl-thiourea] reads 4.95. `Cc1[nH]n2c(=O)cc(C(C)C)nc2c1-c1ccccc1` had a pEC50 of 4.89. The pEC50 values of the last two compounds are within 0.2 log units of each other. For the compound `Fc1cccc(F)c1C=NNC(=S)Nc1cccnc1` [1-[(2,6-difluorobenzylidene)amino]-3-(3-pyridyl)thiourea], the pEC50 is 4.85. The same measure, in the same setting: the result for `O=C(NC(=S)Nc1nc(-c2cccc([N+](=O)[O-])c2)cs1)c1ccccc1Cl` [2-chloranyl-N-[[4-(3-nitrophenyl)-1,3-thiazol-2-yl]carbamothioyl]benzamide] reads 3.61.

`Oc1ccccc1CN=Nc1nc2ccccc2o1` [(6E)-6-[(1,3-benzoxazol-2-ylhydrazo)methylidene]-1-cyclohexa-2,4-dienone]: the pEC50 is 4.34. Same read-out and setting: the result for `O=c1c2ccccc2[nH]c(=S)n1CCN1CCC(=C(c2ccc(F)cc2)c2ccc(F)cc2)CC1` [SMR000058550] reads 4.59; that for `CCOc1ccc2nc(Sc3cc(O)n(-c4cccc(OC)c4)c3O)sc2c1` [3-(6-Ethoxy-benzothiazol-2-ylsulfanyl)-1-(3-methoxy-phenyl)-pyrrolidine-2,5-dione], 4.85; that for `O=[N+]([O-])c1ccc(-c2cn(-c3ccccc3F)c(=S)[nH]2)cc1`, 6.26. As to `N=C1SCC(=O)N1c1ncc(Cc2cccc(Cl)c2)s1` [2-azanylidene-3-[5-[(3-chlorophenyl)methyl]-1,3-thiazol-2-yl]-1,3-thiazolidin-4-one], the pEC50 was 5.59. On the same count and under the same terms, next, `O=[N+]([O-])c1ccccc1C=C[CH+][N-]n1c(-c2ccc(Cl)cc2)n[nH]c1=S` [MLS000555506]: 4.27; `CC(=O)c1cccc(NC(=S)NC(=O)c2ccc(C)cc2)c1` [MLS000687464]: 5.73.

Turning to `S=c1nc(-c2ccc3c(c2)CCO3)cc[nH]1`, the pEC50 is 5.09.

`Cc1nn(-c2nc3ccccc3[nH]2)c(N)c1-c1ccccc1` [MLS000063763] showed a pEC50 of 5.73. Same read-out and setting: next, `CCOc1[nH]n(-c2ccccc2)c(=O)c1C=Nc1ccc(F)cc1F` [(4E)-4-[[[2,4-bis(fluoranyl)phenyl]amino]methylidene]-5-ethoxy-2-phenyl-pyrazol-3-one]: 5.23.

Compound `COC(=O)c1sccc1NC(=S)OC` [3-(methoxycarbothioylamino)thiophene-2-carboxylic acid methyl ester] had a pEC50 of 5.76.

Staying with this assay, now noted: inactive by the depositor's call.
For the compound `Cc1noc(/C=C/N(C)C)c1S(=O)(=O)N(C)CC(=O)NC1CCCCC1` [MLS000047204], the pEC50 is 6.21. On the same count and under the same terms, next, `Cc1ccc(Cn2c(SCC(=O)Nc3cc(C)on3)nc3ccccc3c2=O)cc1` [2-[[4-keto-3-(4-methylbenzyl)quinazolin-2-yl]thio]-N-(5-methylisoxazol-3-yl)acetamide]: 3.86.
